Test results from patent publication US11491089B2, “Reloadable microcapsules” (International Flavors & Fragrances Inc., priority 2016, dated 2022).

Assay: Hansen solubility parameters of the core solvents
Format: physicochemical
Source text: The term “Hansen solubility parameter” refers to a solubility parameter approach proposed by Charles Hansen used to predict polymer solubility and was developed around the basis that the total energy of vaporization of a liquid consists of several individual parts. To calculate the “weighted Hansen solubility parameter” one must combine the effects of (atomic) dispersion forces, (molecular) permanent dipole-permanent dipole forces, and (molecular) hydrogen bonding (electron exchange). The “weighted Hansen solubility parameter” is calculated as (δD^2+δP^2+δH^2)^0.5, wherein δD is the Hansen dispersion value, δP is the Hansen polarizability value, and δH is the Hansen Hydrogen-bonding (“h-bonding”) value.

Row | δD (Hansen dispersion value) | δH (Hansen h-bonding value) | δP (Hansen polar (dipole-dipole) value) | SMILES
1 | 16 | 2.7 | 2.1 | CCCCCCCCCCCCCC(=O)OC(C)C [isopropyl myristate]
2 | 16.4 | 9.6 | 5.7 | CC(=O)OCC(COC(C)=O)OC(C)=O [triacetin]
